Test results from PubChem BioAssay AID256 (DTP/NCI, 2004).
“And” between values parts separate entries of the source, which are not always exact repeats. Identical values can stand only once. Toxic doses and inconclusive results are not listed. The calls were made as follows: active = survival T/C of 150% or more; inactive = T/C below 125% in these data.

Tested on: CD2F1 mice, L1210 leukemia ip, survival T/C
Assay: NCI In Vivo Anticancer Drug Screen. Data for tumor model L1210 Leukemia (intraperitoneal) in CD2F1 (CDF1) mice
Settings: higher = longer survival
Procedure, shortened: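 Tumor-bearing mice (transplanted tumor) were split into treated and vehicle control groups, and the measured endpoint of each treated group was divided by that of its vehicle controls.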

[1] = endpoint: mean survival time, dose: 12.5 mg/kg/injection, schedule: Q01DX009 (ip), vehicle: saline with Tween-80
[2] = endpoint: mean survival time, dose: 25.0 mg/kg/injection, schedule: Q01DX009 (ip), vehicle: saline with Tween-80
[3] = endpoint: mean survival time, dose: 50.0 mg/kg/injection, schedule: Q01DX009 (ip), vehicle: saline with Tween-80
[4] = endpoint: mean survival time, dose: 100.0 mg/kg/injection, schedule: Q01DX009 (ip), vehicle: saline with Tween-80
[5] = endpoint: mean survival time, dose: 100.0 mg/kg/injection, schedule: Q04DX003 (ip), vehicle: saline with Tween-80
[6] = endpoint: mean survival time, dose: 400.0 mg/kg/injection, schedule: Q04DX003 (ip), vehicle: saline with Tween-80
[7] = endpoint: mean survival time, dose: 100.0 mg/kg/injection, schedule: Q01DX001 (ip), vehicle: saline with Tween-80
[8] = endpoint: mean survival time, dose: 200.0 mg/kg/injection, schedule: Q01DX001 (ip), vehicle: saline with Tween-80
[9] = endpoint: mean survival time, dose: 200.0 mg/kg/injection, schedule: Q01DX009 (ip), vehicle: saline with Tween-80
[10] = endpoint: mean survival time, dose: 400.0 mg/kg/injection, schedule: Q01DX001 (ip), vehicle: saline with Tween-80
[11] = endpoint: mean survival time, dose: 25.0 mg/kg/injection, schedule: Q04DX003 (ip), vehicle: saline with Tween-80
[12] = endpoint: mean survival time, dose: 50.0 mg/kg/injection, schedule: Q04DX003 (ip), vehicle: saline with Tween-80
[13] = endpoint: mean survival time, dose: 200.0 mg/kg/injection, schedule: Q04DX003 (ip), vehicle: saline with Tween-80

Measured: T/C

Cn1c2nc(=O)n(-c3ccccc3)c(=O)c-2nc2c1CCCC2
inactive: endpoint: mean survival time, dose: 3.12 mg/kg/injection, schedule: Q01DX009 (ip), vehicle: saline with Tween-80 100 % of control | endpoint: mean survival time, dose: 6.25 mg/kg/injection, schedule: Q01DX009 (ip), vehicle: saline with Tween-80 100 % of control | [1] 98 % of control | [2] 101 % of control | [3] 100 % of control | [4] 106 % of control

CCOC(=O)C1=C(Nc2ccc(OC)cc2)C(N)=NC1=N
inactive: endpoint: median survival time, dose: 6.25 mg/kg/injection, schedule: Q01DX005 (ip), vehicle: suspension in saline 98 % of control | endpoint: median survival time, dose: 12.5 mg/kg/injection, schedule: Q01DX005 (ip), vehicle: suspension in saline 101 % of control and 107 % of control | endpoint: median survival time, dose: 25.0 mg/kg/injection, schedule: Q01DX005 (ip), vehicle: suspension in saline 101 % of control and 107 % of control | endpoint: median survival time, dose: 36.0 mg/kg/injection, schedule: Q01DX005 (ip), vehicle: saline 105 % of control and 108 % of control | endpoint: median survival time, dose: 50.0 mg/kg/injection, schedule: Q01DX005 (ip), vehicle: saline 111 % of control | endpoint: median survival time, dose: 50.0 mg/kg/injection, schedule: Q01DX005 (ip), vehicle: suspension in saline 101 % of control and 107 % of control | endpoint: median survival time, dose: 60.0 mg/kg/injection, schedule: Q01DX005 (ip), vehicle: saline 102 % of control | endpoint: median survival time, dose: 100.0 mg/kg/injection, schedule: Q01DX005 (ip), vehicle: saline 106 % of control | endpoint: median survival time, dose: 100.0 mg/kg/injection, schedule: Q01DX005 (ip), vehicle: suspension in saline 117 % of control

O=C(c1ccccc1)N(N=C(c1ccc([N+](=O)[O-])cc1)c1ccc([N+](=O)[O-])cc1)c1ccccc1
inactive: [5] 93 % of control | [6] 87 % of control

CC(O)(P(=O)(O)O)P(=O)(O)O.[NH-]CC[NH-].[NH-]CC[NH-].[Pd+2].[Pd+2]
inactive: endpoint: mean survival time, dose: 3.13 mg/kg/injection, schedule: Q04DX003 (ip), vehicle: water 106 % of control | endpoint: mean survival time, dose: 6.25 mg/kg/injection, schedule: Q04DX003 (ip), vehicle: water 103 % of control | endpoint: mean survival time, dose: 12.5 mg/kg/injection, schedule: Q04DX003 (ip), vehicle: water 87 % of control | endpoint: mean survival time, dose: 25.0 mg/kg/injection, schedule: Q04DX003 (ip), vehicle: water 103 % of control | endpoint: mean survival time, dose: 50.0 mg/kg/injection, schedule: Q04DX003 (ip), vehicle: water 93 % of control | endpoint: mean survival time, dose: 100.0 mg/kg/injection, schedule: Q04DX003 (ip), vehicle: water 102 % of control

c1csc(CCc2nc3ccccc3o2)c1
inactive: [7] 103 % of control | [4] 93 % of control | [8] 98 % of control | [9] 97 % of control | [10] 112 % of control | endpoint: mean survival time, dose: 400.0 mg/kg/injection, schedule: Q01DX009 (ip), vehicle: saline with Tween-80 93 % of control

CCCCCCCCOC(=O)c1cc([N+](=O)[O-])c(Cl)c([N+](=O)[O-])c1
inactive: [2] 106 % of control | [11] 103 % of control | [3] 101 % of control | [12] 109 % of control | [4] 87 % of control | [5] 91 % of control and 98 % of control

C=C(Br)CNC(=O)NCC
inactive: [11] 94 % of control | [12] 105 % of control | [5] 100 % of control

O=[N+]([O-])O.[NH-]C1CCCCC1[NH-].[NH-]C1CCCCC1[NH-].[NH-]C1CCCCC1[NH-].[OH-].[OH-].[OH-].[Pt+4].[Pt+4].[Pt+4] (stereo unspecified)
inactive: endpoint: mean survival time, dose: 20.0 mg/kg/injection, schedule: Q04DX003 (ip), vehicle: water 87 % of control

CCC1(C)C=CCC(C)(C)S1 (stereo unspecified)
inactive: endpoint: mean survival time, dose: 100.0 mg/kg/injection, schedule: Q04DX002 (ip), vehicle: saline with Tween-80 102 % of control | endpoint: mean survival time, dose: 200.0 mg/kg/injection, schedule: Q04DX002 (ip), vehicle: saline with Tween-80 91 % of control

COc1cc2cc(c1Cl)N(C)C(=O)CC(OC(=O)C(C)C)C1(C)OC1C(C)C1CC(O)(NC(=O)O1)C(OC)/C=C/C=C(C)C2 (stereo unspecified)
inactive: endpoint: mean survival time, dose: 3.8 micrograms/kg/injection, schedule: Q01DX009 (ip), vehicle: saline + alcohol 100 % of control | endpoint: mean survival time, dose: 7.5 micrograms/kg/injection, schedule: Q01DX009 (ip), vehicle: saline + alcohol 97 % of control | endpoint: mean survival time, dose: 15.0 micrograms/kg/injection, schedule: Q01DX009 (ip), vehicle: saline + alcohol 114 % of control | endpoint: mean survival time, dose: 30.0 micrograms/kg/injection, schedule: Q01DX009 (ip), vehicle: saline + alcohol 111 % of control | endpoint: mean survival time, dose: 60.0 micrograms/kg/injection, schedule: Q01DX009 (ip), vehicle: saline + alcohol 111 % of control

COC(=O)c1ccccc1C=C(c1ccc([N+](=O)[O-])cc1)c1ccc([N+](=O)[O-])cc1
inactive: [4] 93 % of control | [5] 94 % of control | [9] 93 % of control | [13] 96 % of control | [6] 88 % of control

Cc1cccc2cc3c(sc4ccccc43)c(C)c12
inactive: endpoint: mean survival time, dose: 7.9 mg/kg/injection, schedule: Q04DX003 (ip), vehicle: other 101 % of control | endpoint: mean survival time, dose: 15.7 mg/kg/injection, schedule: Q04DX003 (ip), vehicle: other 97 % of control | endpoint: mean survival time, dose: 31.3 mg/kg/injection, schedule: Q04DX003 (ip), vehicle: other 97 % of control | endpoint: mean survival time, dose: 62.5 mg/kg/injection, schedule: Q04DX003 (ip), vehicle: other 97 % of control | endpoint: mean survival time, dose: 125.0 mg/kg/injection, schedule: Q04DX003 (ip), vehicle: other 93 % of control

[Co+2].[NH-]c1ccccc1C(=O)O.[NH-]c1ccccc1C(=O)O
inactive: [5] 89 % of control | [13] 91 % of control | [6] 91 % of control

CCCCCCCCCCCCCCCCOc1ccc(OCCCCCCCCCCCCCCC)cc1
inactive: [7] 88 % of control | [8] 89 % of control | [10] 88 % of control

C1CC[N-]CC1.C1CC[N-]CC1.O=C(O)CC(=O)O.[Pt+2]
inactive: endpoint: mean survival time, dose: 3.13 mg/kg/injection, schedule: Q04DX003 (ip), vehicle: saline with Tween-80 100 % of control | endpoint: mean survival time, dose: 6.25 mg/kg/injection, schedule: Q04DX003 (ip), vehicle: saline with Tween-80 97 % of control | endpoint: mean survival time, dose: 12.5 mg/kg/injection, schedule: Q04DX003 (ip), vehicle: saline with Tween-80 100 % of control | [11] 100 % of control | [12] 97 % of control | [5] 100 % of control | [13] 96 % of control

CCN(N=O)C(=O)Nc1ccc(C2CC(=O)N(C)C2=O)cc1 (stereo unspecified)
inactive: endpoint: mean survival time, dose: 12.5 mg/kg/injection, schedule: Q01DX001 (ip), vehicle: distilled water + Tween-80 99 % of control | endpoint: mean survival time, dose: 25.0 mg/kg/injection, schedule: Q01DX001 (ip), vehicle: distilled water + Tween-80 111 % of control | endpoint: mean survival time, dose: 50.0 mg/kg/injection, schedule: Q01DX001 (ip), vehicle: distilled water + Tween-80 94 % of control and 98 % of control and 108 % of control | endpoint: mean survival time, dose: 100.0 mg/kg/injection, schedule: Q01DX001 (ip), vehicle: distilled water + Tween-80 122 % of control and 94 % of control and 96 % of control | endpoint: mean survival time, dose: 200.0 mg/kg/injection, schedule: Q01DX001 (ip), vehicle: distilled water + Tween-80 99 % of control and 101 % of control

COc1cc(NCCCNCC(C)(C)C)c2ncccc2c1
inactive: endpoint: mean survival time, dose: 1.25 mg/kg/injection, schedule: Q01DX009 (ip), vehicle: Klucel (hydroxypropylcellulose) (HPC) 98 % of control | endpoint: mean survival time, dose: 2.5 mg/kg/injection, schedule: Q01DX009 (ip), vehicle: Klucel (hydroxypropylcellulose) (HPC) 105 % of control | endpoint: mean survival time, dose: 5.0 mg/kg/injection, schedule: Q01DX009 (ip), vehicle: Klucel (hydroxypropylcellulose) (HPC) 100 % of control | endpoint: mean survival time, dose: 10.0 mg/kg/injection, schedule: Q01DX009 (ip), vehicle: Klucel (hydroxypropylcellulose) (HPC) 105 % of control

Cc1csc2ncn(C3OC(CO)C(O)C3O)c(=O)c12 (stereo unspecified)
inactive: [1] 110 % of control | [2] 101 % of control | [3] 94 % of control
